In this assay the target is T1, recombinant mouse Nape-pld (NAPE-PLD) (Mus musculus, UniProt Q8BH82).
T1 construct: gene Napepld
As to conditions: 50 mM Tris-HCl pH 8.0, N-octyl-β-D-glucoside, 37 °C, allosteric sigmoidal fit.

Where two headings read alike, the source gives them in different places.

Broadly, the Km is the substrate concentration at which the rate is half of its maximum.

T1 sequence (Q8BH82 whole entry): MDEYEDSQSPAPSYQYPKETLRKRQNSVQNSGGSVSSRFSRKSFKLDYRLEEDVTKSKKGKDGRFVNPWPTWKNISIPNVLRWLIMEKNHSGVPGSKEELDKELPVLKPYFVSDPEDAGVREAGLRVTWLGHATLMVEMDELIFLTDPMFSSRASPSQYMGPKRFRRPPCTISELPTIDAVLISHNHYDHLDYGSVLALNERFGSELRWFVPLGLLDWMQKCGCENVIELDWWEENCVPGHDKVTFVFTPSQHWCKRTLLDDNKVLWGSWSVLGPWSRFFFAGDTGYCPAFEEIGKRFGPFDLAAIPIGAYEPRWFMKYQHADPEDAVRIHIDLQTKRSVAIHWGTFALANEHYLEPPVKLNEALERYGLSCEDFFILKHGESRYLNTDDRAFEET

As for `CCCCCCO[C@H](COC(=O)CCCCC1=[N+]2C(=Cc3c(C)cc(C)n3[B-]2(F)F)C=C1)COP(=O)(O)OCCNC(=O)CCCCCNc1ccc([N+](=O)[O-])cc1[N+](=O)[O-]` [PED-A1], the Km came out at 4 µM.
`CCCCCCO[C@@H](COP(=O)(O)OCCNC(=O)CCCCCNc1ccc([N+](=O)[O-])cc1[N+](=O)[O-])CN(C)C(=O)CCCCc1ccc2n1[B-](F)(F)[N+]1=C(C)C=C(C)C1=C2` [flame-NAPE]: under “authors note evidence of an inadequate regression model for flame-NAPE”, the Km was 9.2 µM.

Values taken from paper PMC8953660, “Selective measurement of NAPE-PLD activity via a PLA1/2-resistant fluorogenic N-acyl-phosphatidylethanolamine analog” (Journal of Lipid Research, 2021).
